{"source": "patent US20230339981A1", "about": "“KRAS G12D MODULATING COMPOUNDS” (priority 2022, published 2023)", "key": {"[1]": {"target": "GDP-loaded KRAS G12D (Homo sapiens (Human), UniProt P01116, G12D)", "sequence (P01116-2 other isoform, or with tags, fused parts or gaps G12D)": "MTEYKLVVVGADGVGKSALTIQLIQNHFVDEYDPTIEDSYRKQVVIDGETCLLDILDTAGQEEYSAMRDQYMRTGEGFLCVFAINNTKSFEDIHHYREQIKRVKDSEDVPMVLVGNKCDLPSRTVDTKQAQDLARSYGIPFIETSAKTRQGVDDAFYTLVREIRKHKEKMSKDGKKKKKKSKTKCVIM", "experiment": "KRAS G12D (GDP) biochemical assay (TR-FRET probe displacement)", "format": "binding", "details": "2 hours", "how_it_was_run": "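Compound pre-incubated 30 min with GDP-loaded KRAS G12D in 50 mM Hepes pH 7.4, 150 mM NaCl, 5 mM MgCl2, 0.005% Tween-20, then Eu-streptavidin and TR-FRET probe added. After 2 h at room temperature, TR-FRET ratio read; IC50 is 50% ratio decrease, sigmoidal fit.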"}, "[2]": {"test_system": "GP2D (KRAS G12D) cells", "experiment": "2D cell viability assay (CellTiter-Glo)", "format": "cell-based", "details": "GP2d, 96 h, 4 days", "how_it_was_run": "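GP2D (KRAS G12D) cells, 1000/well in RPMI + 10% FBS, were plated onto compound (1:3 DMSO series) and grown 4 days at 37 °C, 5% CO2 in 2D. CellTiter-Glo luminescence was read; EC50 is the concentration giving 50% signal decrease, from sigmoidal fit.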"}, "[3]": {"test_system": "AsPC-1 (KRAS G12D) cells", "experiment": "3D cell viability assay (spheroids, CellTiter-Glo 3D)", "format": "cell-based", "details": "Homo sapiens, ASPC1, 96 h, AsPC-1 cells, 3D spheroids, 4 days", "how_it_was_run": "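AsPC-1 cells (1000/well) in DMEM with 10% FBS formed spheroids over 3 days at 37 °C in ultra-low attachment plates, then were treated with 1:3 serial dilutions for 4 days. Viability read by CellTiter-Glo 3D luminescence; EC50 as concentration giving 50% signal decrease, sigmoidal fit.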"}}}
{"smiles": "C#Cc1c(F)ccc2cccc(-c3nc4c5c(nc(OC[C@@]67CCCN6[C@H](COC(C)(C(F)(F)F)C(F)(F)F)CC7)nc5c3F)N3C[C@H]5CC[C@H](N5)[C@H]3CCC4)c12", "note": "[Example 115, (6aR,7S,10R)-2-(8-ethynyl-7-fluoronaphthalen-1-yl)-1-fluoro-13-(((3S,7aS)-3-(((1,1,1,3,3,3-hexafluoro-2-methylpropan-2-yl)oxy)methyl)tetrahydro-1H-pyrrolizin-7a(5H)-yl)methoxy)-5,6,6a,7,8,9,10,11-octahydro-4H-3,11a,12,14,15-pentaaza-7,10-methanocyclohepta[4,5]cycloocta[1,2,3-de]naphthalene]", "values": [{"measurement": "IC50", "setting": "[1]", "value": 0.1, "unit": "nM"}, {"measurement": "EC50", "setting": "[2]", "value": 11.5, "unit": "nM"}, {"measurement": "EC50", "setting": "[3]", "value": 100, "unit": "nM"}]}
{"smiles": "C#Cc1c(F)ccc2cc(O)cc(-c3nc4c5c(nc(OCC6(CN7CCC(CC(F)(F)F)CC7)CC6)nc5c3F)N3C[C@H]5CC[C@H](N5)[C@H]3CC4)c12", "note": "[Example 167, 5-ethynyl-6-fluoro-4-((5aR,6S,9R)-1-fluoro-12-((1-((4-(2,2,2-trifluoroethyl)piperidin-1-yl)methyl)cyclopropyl)methoxy)-4,5,5a,6,7,8,9,10-octahydro-3,10a,11,13,14-pentaaza-6,9-methanonaphtho[1,8-ab]heptalen-2-yl)naphthalen-2-ol]", "values": [{"measurement": "IC50", "setting": "[1]", "value": "< 0.1", "unit": "nM"}, {"measurement": "EC50", "setting": "[2]", "value": 0.7, "unit": "nM"}, {"measurement": "EC50", "setting": "[3]", "value": 32, "unit": "nM"}]}
{"smiles": "Oc1cc(-c2nc3c4c(nc(OC[C@@]56CCCN5C[C@H](F)C6)nc4c2F)N2C[C@H]4CC[C@H](N4)[C@H]2CC3)c2ccccc2c1", "note": "[Example 24, 4-((5aR,6S,9R)-1-fluoro-12-(((2R,7aS)-2-fluorotetrahydro-1H-pyrrolizin-7a(5H)-yl)methoxy)-4,5,5a,6,7,8,9,10-octahydro-3,10a,11,13,14-pentaaza-6,9-methanonaphtho[1,8-ab]heptalen-2-yl)naphthalen-2-ol]", "values": [{"measurement": "IC50", "setting": "[1]", "value": 1, "unit": "nM"}, {"measurement": "EC50", "setting": "[2]", "value": 17, "unit": "nM"}, {"measurement": "EC50", "setting": "[3]", "value": 190, "unit": "nM"}]}
{"smiles": "Oc1cc(-c2nc3c4c(nc(OC[C@@]56CCCN5C[C@H](F)C6)nc4c2F)N2C[C@H]4CC[C@H](N4)[C@H]2CO3)c2c(Cl)c(F)ccc2c1", "note": "[Example 9, 5-chloro-6-fluoro-4-((5aS,6S,9R)-1-fluoro-12-(((2R,7aS)-2-fluorotetrahydro-1H-pyrrolizin-7a(5H)-yl)methoxy)-5a,6,7,8,9,10-hexahydro-5H-4-oxa-3,10a,11,13,14-pentaaza-6,9-methanonaphtho[1,8-ab]heptalen-2-yl)naphthalen-2-ol]", "values": [{"measurement": "IC50", "setting": "[1]", "value": 0.5, "unit": "nM"}, {"measurement": "EC50", "setting": "[2]", "value": 20, "unit": "nM"}, {"measurement": "EC50", "setting": "[3]", "value": 77, "unit": "nM"}]}
